Assay [1] deals with 2-phenyl-1,4-benzoquinone-induced writhing. The assay can be described thus: 2-phenyl-1,4-benzoquinone-induced writhing test in mice (analgesia). It is filed as in vivo. The note with it: Mus musculus, po.
In assay [2] the test system is carrageenin induced rat paw edema. The assay can be described thus: carrageenin induced rat paw edema antiinflammatory assay. The class given is in vivo. The note with it: for Carrageenin Paw Edema %: dose 20 mg/kg (p.o.), rat. The source says:
The compounds of the present invention are useful as antiinflammatory agents due to their ability to suppress inflammation in mammals. […] Exptl. Biol. Med., III 544 (1962), J. Pharmacol. Exp., 141 (1963)].
(In general: The carrageenan paw model is a standard test of acute inflammation.)

The mark [3] stands for this setting: mice, read-out: Phenylquinone Writhing ED50 Orally (p.o.).

This is an account of results in patent US4477465A, “Substituted 4,10-dihydro-10-oxothieno benzoxepins” (Hoechst-Roussel Pharmaceuticals Inc., priority 1983, dated 1984).

Where two headings read alike, the source gives them in different places.

The ED50 is the dose at which the effect has come halfway, by size or by number of responders. As for `CC1(C)COC(Cc2ccc3c(c2)C(=O)c2sccc2CO3)=N1` [2-(4,10-Dihydro-10-oxothieno[3,2-c][1]benzoxepin-8-yl)methyl-4,4-dimethyl-oxazoline], the 50% effective dose (ED50) in assay [1] (setting [3]) was 7.22 mg/kg. The “Carrageenin Paw Edema %” value in assay [2] is reported as 49%.

As for `COC(=O)COC(=O)Cc1ccc2c(c1)C(=O)c1sccc1CO2` [Methyl (4,10-dihydro-10-oxothieno[3,2-c][1]benzoxepin-8-yl) acetoxyacetate], the 50% effective dose (ED50) in assay [1] (setting [3]) came out at 1.53 mg/kg. Besides, the “Carrageenin Paw Edema %” value in assay [2] stood at 43%.

`COc1ccc2c(c1)c(CC(=O)O)c(C)n2C(=O)c1ccc(Cl)cc1` [indomethacin, reference compound]: the ED50 in assay [1] (read-out: analgesic activity ED50) came to 0.7 mg/kg.

Consider `CCCCC1C(=O)N(c2ccccc2)N(c2ccccc2)C1=O` [phenylbutazone, reference compound], for which the inhibition of edema in assay [2] (dose 50 mg/kg (p.o.), in a similar test) came to 50%.
